# Laboratory results taken from patent publication US9718790B2, “Triazine derivative and pharmaceutical composition having an analgesic activity comprising the same” (SHIONOGI & CO., LTD., priority 2010, dated 2017).
# Molecular target: human P2X3 receptor (Homo sapiens (Human), UniProt P56373)
# Test: Evaluation of human P2X3 receptor inhibitory activity (Fluo-3 calcium fluorescence, FDSS 3000, ATP stimulation);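 note: stimulus was 50 nM ATP with fluorescence followed for 3 min, and the response per well was peak post-ATP fluorescence divided by the reading at measurement start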
# Assay type: cell-based
# Conditions: C6BU-1 cells stably expressing human P2X3 receptor
# Chain of human P2X3 receptor (P56373 whole entry): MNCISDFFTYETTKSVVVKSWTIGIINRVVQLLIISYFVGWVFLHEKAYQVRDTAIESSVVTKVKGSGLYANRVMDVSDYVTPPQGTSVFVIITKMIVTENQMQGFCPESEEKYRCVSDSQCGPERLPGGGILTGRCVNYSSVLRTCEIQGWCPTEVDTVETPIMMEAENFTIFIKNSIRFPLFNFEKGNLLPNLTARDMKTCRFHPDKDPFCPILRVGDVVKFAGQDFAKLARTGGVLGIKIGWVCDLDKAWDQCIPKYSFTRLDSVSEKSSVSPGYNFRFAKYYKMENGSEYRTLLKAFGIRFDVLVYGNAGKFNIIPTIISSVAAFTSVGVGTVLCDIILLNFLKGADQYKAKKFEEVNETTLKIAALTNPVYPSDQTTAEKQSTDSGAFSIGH
row,SMILES,IC50 [nM]
1,C[C@@H](Cn1c(=O)[nH]/c(=N\c2ccc(N3CCCCCC3)cc2)n(Cc2ccc(Cl)cc2)c1=O)C(=O)O [Compound I-1235],214
2,Cc1ccc(Cn2c(=O)n(C[C@H](C)C(=O)O)c(=O)[nH]/c2=N\c2ccc(Oc3ccnc(O)c3)cc2)cc1 [Compound I-1440],6
3,Cc1cc(/N=c2\[nH]c(=O)n([C@@H]3CN[C@H](C(=O)O)C3)c(=O)n2Cc2ccc(Cl)cc2)ccc1OC(C)C [Compound I-0716],102
4,COC(=O)[C@H](C)[C@H](C)n1c(=O)[nH]/c(=N\c2ccc3oc(C)cc3c2)n(Cc2ccc(Cl)cc2)c1=O [Compound I-1323],33
5,CC(C)Oc1ccc(/N=c2\[nH]c(=O)n(CC(C)(C)C(=O)O)c(=O)n2Cc2ccc(Cl)cc2)cc1CO [Compound I-1431],242
6,CCn1c(=O)[nH]/c(=N\c2ccc(OC3CNC=C(C(=O)OC)C3)cc2)n(Cc2ccc(Cl)cc2)c1=O (stereo not drawn) [Compound I-2138],171
7,COC(=O)[C@@H](C)Cn1c(=O)[nH]/c(=N\c2ccc(OC3CCC3)cc2)n(Cc2ccc(Cl)cc2)c1=O [Compound I-1281],6
8,CC(C)Oc1ccc(/N=c2\[nH]c(=O)n(Cc3nnn[nH]3)c(=O)n2Cc2ccc(Cl)cc2)cc1F [Compound I-1297],26
9,CCCc1ccc(/N=c2\[nH]c(=O)n(C[C@H](C)C(=O)OC)c(=O)n2Cc2ccc(C)cc2)cc1C [Compound I-1210],37
10,CC(C)Oc1ccc(/N=c2\[nH]c(=O)n(CC(=O)NO)c(=O)n2Cc2ccc(Cl)cc2)cc1F [Compound I-0636],10
11,CCCc1ccc(/N=c2\[nH]c(=O)n(C[C@H](C)C(=O)OC)c(=O)n2Cc2ccc(Cl)cc2)cc1 [Compound I-0621],58
12,"CC(C)Oc1ccc(/N=c2\[nH]c(=O)n(CCC(=O)NC#N)c(=O)n2Cc2ccc(Cl)cc2)cc1F [Compound I-0758, 1-(4-chlorobenzyl)-6-(3-fluoro-4-isopropoxyphenylimino)-3-[2-(cyanocarbamoyl)ethyl]-1,3,5-triazinane-2,4-dion]",19
13,COC(=O)[C@H](C)[C@H](C)n1c(=O)[nH]/c(=N\c2ccc(OC3CCC3)c(C)c2)n(Cc2ccc(C)cc2)c1=O [Compound I-1402],33
14,COC(=O)[C@@H](C)Cn1c(=O)[nH]/c(=N\c2cnc(OC3CCC3)c(Cl)c2)n(Cc2ccc(Cl)cc2)c1=O [Compound I-1399],50
15,CCn1c(=O)[nH]/c(=N\c2ccc(Oc3ccc(S(N)(=O)=O)cc3)cc2)n(Cc2ccc(Cl)cc2)c1=O [Compound I-1993],6
16,COC(=O)[C@@H](C)Cn1c(=O)[nH]/c(=N\c2ccc3nc(C)ccc3c2)n(Cc2ccc(C)cc2)c1=O [Compound I-1275],6
17,COC(=O)[C@@H](C)Cn1c(=O)[nH]/c(=N\c2cnc(OC3CCCC3)c(Cl)c2)n(Cc2ccc(C)cc2)c1=O [Compound I-1475],39
18,Cc1ccc(Cn2c(=O)n([C@@H](C)[C@@H](C)C(=O)O)c(=O)[nH]/c2=N\c2ccc(OC3CCC3)c(C)c2)cc1 [Compound I-1408],16
19,CCCn1c(=O)[nH]/c(=N\c2ccc(Oc3ccc(C(=O)OC)nc3)cc2)n(Cc2ccc(Cl)cc2)c1=O [Compound I-2157],1
20,CC(C)Oc1ccc(/N=c2\[nH]c(=O)n(C(C)(C)C(=O)NCCO)c(=O)n2Cc2ccc(Cl)cc2)cc1Cl [Compound I-0705],11
21,CCn1c(=O)[nH]/c(=N\c2ccc(Oc3ccc(-c4ncn[nH]4)cc3)cc2)n(Cc2ccc(Cl)cc2)c1=O [Compound I-1973],2
22,COc1cc(/N=c2\[nH]c(=O)n(CCOC3CCCCO3)c(=O)n2Cc2ccc(Cl)cc2)ccc1OC(C)C (stereo not drawn) [Compound I-2005],3
23,O=C(O)CCn1c(=O)[nH]/c(=N\c2ccc(Oc3cncc(F)c3)cc2)n(Cc2ccc(Cl)cc2)c1=O [Compound I-1412],11
24,Cc1ccc(Cn2c(=O)n(C)c(=O)[nH]/c2=N\c2ccc(Oc3cccc(C(=O)O)c3)cc2)cc1 [Compound I-2060],22
25,O=c1[nH]/c(=N\c2ccc(Oc3ccnc(CO)c3)cc2)n(Cc2ccc(Cl)cc2)c(=O)n1CCCO [Compound I-1995],5
26,COC(=O)[C@H](C)[C@H](C)n1c(=O)[nH]/c(=N\c2ccc(N3CCCCC3)cc2)n(Cc2ccc(C)cc2)c1=O [Compound I-1381],20
27,CC(C)Oc1ccc(/N=c2\[nH]c(=O)n(CC(=O)NCCC3CCOCC3)c(=O)n2Cc2ccc(Cl)cc2)cc1Cl [Compound I-0666],8
28,COC(=O)[C@@H](C)[C@@H](C)n1c(=O)[nH]/c(=N\c2ccc(OC(C)C)cc2)n(Cc2ccc(C)cc2)c1=O [Compound I-1310],66
29,CC[C@H](C)Oc1ccc(/N=c2\[nH]c(=O)n(C[C@H](C)C(=O)O)c(=O)n2Cc2ccc(Cl)cc2)cc1 [Compound I-0755],24

# Same assay, conditions: C6BU-1 cells stably expressing human P2X3 receptor, Fluo-3 fluorescence, FDSS 3000
row,SMILES,IC50 [nM]
1,COC(=O)C(C)(C)Cn1c(=O)[nH]/c(=N\c2ccc3nc(C)sc3c2)n(Cc2ccc(Cl)cc2)c1=O [Compound I-1569],4
2,C[C@@H](C(=O)O)[C@H](C)n1c(=O)[nH]/c(=N\c2ccc3[nH]c(S)nc3c2)n(Cc2ccc(Cl)cc2)c1=O [Compound I-1822],332
3,C#Cc1ccc(Cn2c(=O)n(C[C@H](C)C(=O)O)c(=O)[nH]/c2=N\c2ccc(OC(C)C)c(C)c2)cc1 [Compound I-0946],239
4,O=C(O)CCn1c(=O)[nH]/c(=N\c2cccc(S(F)(F)(F)(F)F)c2)n(Cc2ccc(Cl)cc2)c1=O [Compound I-1651],54
5,Cc1ccc(Cn2c(=O)n(CC3(C(=O)O)CC3)c(=O)[nH]/c2=N\c2ccc(OCC3CC3)cc2)cc1 [Compound I-0915],75
6,CCc1oc2ccc(/N=c3\[nH]c(=O)n(C[C@@H](C)NC(C)=O)c(=O)n3Cc3ccc(Cl)cc3)cc2c1C [Compound I-1673],14
7,COc1ccc(Oc2ccc(/N=c3\[nH]c(=O)n(C[C@H](O)CO)c(=O)n3Cc3ccc(Cl)cc3)cc2)cn1 [Compound I-1734],5
8,CC(=O)NCCn1c(=O)[nH]/c(=N\c2ccc(O[C@H](C)C(F)(F)F)cc2)n(Cc2ccc(Cl)cc2)c1=O [Compound I-1617],27
9,CCOC(=O)C1(Cn2c(=O)[nH]/c(=N\c3ccc(OCC4CC4)cc3)n(Cc3ccc(C)cc3)c2=O)CC1 [Compound I-0913],9
10,COC(=O)[C@@H](C)Cn1c(=O)[nH]/c(=N\c2ccc(OC(F)(F)F)cc2)n(Cc2ccc(C)cc2)c1=O [Compound I-0999],174
11,COC(=O)[C@@H](C)Cn1c(=O)[nH]/c(=N\c2ccc(OC(C)C)c(C#N)c2)n(Cc2ccc(Cl)cc2)c1=O [Compound I-0953],42
12,COC(=O)[C@@H](C)Cn1c(=O)[nH]/c(=N\c2ccc(CN(C)C)c(Cl)c2)n(Cc2ccc(C)cc2)c1=O [Compound I-1172],97
13,Cc1ccc(Cn2c(=O)n(C[C@H](C)C(=O)O)c(=O)[nH]/c2=N\c2ccc(N3CCCC3)cc2)cc1 [Compound I-1091],179
14,CCc1nc2ccc(/N=c3\[nH]c(=O)n(CC(=O)OC)c(=O)n3Cc3ccc(Cl)cc3)cc2s1 [Compound I-1752],4

# Same assay, conditions: human P2X3 receptor, Test Example 1
row,SMILES,IC50 [nM]
1,CCn1c(=O)[nH]/c(=N\c2ccc(Oc3nccc(C(=O)O)n3)cc2)n(Cc2ccc(C)cc2)c1=O [Compound I-2404],16
2,CCn1c(=O)[nH]/c(=N\c2ccc3nc(O)sc3c2)n(Cc2ccc(Cl)cc2)c1=O [Compound I-2325],47
3,CC(=O)Nc1ccc(Oc2ccc(/N=c3\[nH]c(=O)n(C)c(=O)n3Cc3ccc(Cl)cc3)cc2)cn1 [Compound I-2429],5
4,COC(=O)CCn1c(=O)[nH]/c(=N\c2ccc(Oc3ncns3)cc2)n(Cc2ccc(Cl)cc2)c1=O [Compound I-2652],3
5,O=c1[nH]/c(=N\c2ccc(Oc3ccon3)c(F)c2)n(Cc2ccc(Cl)cc2)c(=O)n1C(CO)CO [Compound I-2529],73
6,Cc1ccc(Cn2c(=O)n(C[C@H](C)C(=O)O)c(=O)[nH]/c2=N\c2ccc(CC(C)(C)O)c(Cl)c2)cc1 [Compound I-1532],25
7,CCn1c(=O)[nH]/c(=N\c2ccc(Oc3ccnc(NC(=O)NC)c3)cc2)n(Cc2ccc(Cl)cc2)c1=O [Compound I-2425],2
8,O=c1[nH]/c(=N\c2ccc(Oc3nccs3)cc2)n(Cc2ccc(Cl)cc2)c(=O)n1CCO [Compound I-2505],17
9,CCOC(=O)Cn1c(=O)[nH]/c(=N\c2ccc(Oc3ncns3)cc2)n(Cc2ccc(Cl)cc2)c1=O [Compound I-2628],4
10,CC[C@@H](C)Oc1ccc(/N=c2\[nH]c(=O)n(C[C@H](C)C(=O)OC)c(=O)n2Cc2ccc(C)cc2)cc1 [Compound I-0824],18
11,NC(=O)c1ccc(Oc2ccc(/N=c3\[nH]c(=O)n(C[C@H](O)CO)c(=O)n3Cc3ccc(Cl)cc3)cc2)cc1 [Compound I-2546],6
12,CCn1c(=S)[nH]/c(=N\c2ccc(Oc3cncc(C(=O)O)c3)cc2)n(Cc2ccc(Cl)cc2)c1=O [Compound I-2263],4
13,COC(=O)CCn1c(=O)[nH]/c(=N\c2ccc(Oc3cccc(C#N)n3)cc2)n(Cc2ccc(Cl)cc2)c1=O [Compound I-2666],2
14,CCCOc1ccc(/N=c2\[nH]c(=O)n(C[C@H](C)C(=O)O)c(=O)n2Cc2ccc(C)cc2)cc1 [Compound I-0828],25
15,CCn1c(=O)[nH]/c(=N\c2ccc(Oc3ccnc(C(=O)O)c3)c(F)c2)n(Cc2ccc(Cl)cc2)c1=O [Compound I-2462],7
16,Cc1ccc(Cn2c(=O)n(CCC(=O)O)c(=O)[nH]/c2=N\c2ccc(Oc3cc(C(=O)O)ccn3)cc2)cc1 [Compound I-2671],36
17,Cc1nsc(Oc2ccc(/N=c3\[nH]c(=O)n(CC(CO)CO)c(=O)n3Cc3ccc(F)cc3)cc2)n1 [Compound I-2605],14
18,CCn1c(=O)[nH]/c(=N\c2ccc(Oc3ccnc(C(N)=O)n3)cc2)n(Cc2ccc(Cl)cc2)c1=O [Compound I-2532],5
19,NC(=O)Cn1c(=O)[nH]/c(=N\c2ccc(Oc3cccc(F)n3)cc2)n(Cc2ccc(Cl)cc2)c1=O [Compound I-2584],8
20,Cn1c(=O)[nH]/c(=N\c2ccc(Oc3cccc(C(N)=O)n3)cc2)n(Cc2ccc(Cl)cc2)c1=O [Compound I-2274],5
